Measurements reported in PMC9046208, “Foldamers reveal and validate therapeutic targets associated with toxic α-synuclein self-assembly” (Nature Communications, 2022).

What was measured:
[1] = target: T1, αS seeds extracted from PD brain (Homo sapiens, UniProt P37840); test: PMCA assay with αS seeds from PD brain (PK digestion, western blot); assay type: biochemical; conditions: SK-129 equimolar
T1 construct: Synuclein Residues (1-140); made in house; host or cells: Monomer: Escherichia coli BL21(DE3), WT αS in pET11 (Addgene); Seeds: fixed human substantia nigra tissue from post mortem PD brain
Description: Fixed brain tissues were obtained from the Carroll A. Campbell, Jr. Neuropathology Lab (CCNL) brain bank at the Medical University of South Carolina (Dr. Steve Carroll, Director) and from Dr. Greg Gerhardt’s laboratory at the University of Kentucky. The seeds were extracted from the post mortem brain by following a published protocol with a slight modification. The brain was sliced in 1 cm slabs as soon as possible to avoid long post mortem intervals and fixed free-floating in a solution of 4% paraformaldehyde in 1x PBS buffer (4% paraformaldehyde in 1x PBS buffer). […] Following fixation, tissue was transferred to a cryoprotectant solution (30% glycerol, 30% ethylene glycol, and 40% 1x PBS buffer, v,v) and kept at −20 °C until dissection. A total of Sixteen brain regions were dissected after fixation and processed for neuropathological diagnosis of PD according to a published protocol. A diagnosis was conducted, which included staining with H & E, Bielshowsky’s silver stain, as well as p-Tau, Amyloid-β, and αS immunohistochemistry (See main manuscript Fig. 4b, c). From the total tissue amount, ~100 mg of fixed substantia nigra tissue was homogenized using a Bio-Gen PRO200 Tissue Homogenizer (PRO Scientific Inc., Oxford, CT) in 1x PBS buffer (10%, w/v). The homogenate was centrifuged at a rate of 19,000 × g for 12 min. […]

[2] = test system: HEK cells expressing αS-A53T-YFP; test: Intracellular seed catalyzed aggregation in HEK cells, inclusion count; assay type: cell-based; conditions: 10 µM SK-129 added 8 h after αS seeds (0.125 µM)
Description: The HEK cells (200,000 cells/mL) were plated in an µ-slide eight-well plate (300 µL/well) and incubated at 37 °C and 5% CO2 (g), and allowed to adhere to the plate for 24 h in media (DMEM, 10% FBS, 1% pen/strep). […] The HEK cells were incubated with αS fibrils for 8 h followed by the addition of 10 µM SK-129 for 300 µL media in each well (0.3 µL of 10 mM stock solution in DMSO, total DMSO = 0.1% v,v). The eight-well plate was incubated for a total of 24 h. The eight-well plate after 24 h was used for both confocal imaging and for the cytotoxicity measurements using MTT assay (2 wells/condition, 300 µL/well). In each experiment, 2 wells were used for each condition, including control (only media and DMSO), fibrils, and fibrils+SK-129.
The HEK cells in the eight-well plate were treated with a Hoechst 33342 dye solution for 1 h by adding 3 µL to each well (from 1 mg/ml solution in 1x PBS buffer). The Hoechst 33342 solution was carefully mixed with media by pipetting up and down for a few times. […] The counting of inclusions was carried out for six different experiments and for each experiment, 100 cells were counted from at least four different locations from the eight-well plate. The cells were counted manually by counting the number of Hoechst 33342 dye-stained nuclei in the cells. The inclusions in the cells were counted manually at different locations in the eight-well plate. […]

[3] = target: T2, αS1 seed-catalyzed aggregation (Homo sapiens, UniProt P37840, DEL6-12); test: Seed-catalyzed ThT aggregation assay (10% WT αS seeds), αS1; assay type: biochemical; conditions: αS1, equimolar ratio
T2 construct: made in house; host or cells: Escherichia coli BL21(DE3)
Description: Seed-catalyzed αS aggregation assay was performed similarly to a previously described protocol. Briefly, 100 μM monomeric WT αS solution (200 μL, in 1x PBS buffer) was placed into a ThermoMixer (Eppendorf, Hamberg, Germany) and shook for five days at a rate of […] and 37 °C. The solution was sonicated for 10 min and used as αS seeds. The seed-catalyzed aggregation of WT αS/ αS variants was performed by adding αS seeds (10% seeds, αS in monomeric concentration, v/v) into 140 μL of fresh 100 μM WT αS/ αS variants solution and aggregation was started with constant shaking at a rate of […] and 37 °C. The aggregation of proteins was monitored at the indicated times (See the main manuscript) using the above-mentioned method.
The ThT aggregation assay for each protein (WT αS and αS variants) in the presence of SK-129 was carried out the above-mentioned method. SK-129 (from 10 mM stock solution in DMSO) was added at an equimolar ratio (1% DMSO, v/v) to the proteins at the start of the aggregation experiment. The concentration of DMSO was kept constant (1%, v/v) in protein (WT αS and αS variants), control, and protein+molecule solutions. The kinetic profiles of protein aggregation were processed using OriginPro software (Version 9.1). Kinetic curves were fit using a built-in sigmoidal fit in the OriginLab.

COC(=O)c1cc(OCC(=O)O)c2cccc(NC(=O)c3cc(OC(C)C)c4cccc(NC(=O)c5cc(OCC(=O)O)c6cccc(NC(=O)c7cc(OC(C)C)c8cccc([N+](=O)[O-])c8n7)c6n5)c4n3)c2n1 [SK-129]
state of PMCA sample (cycle 5) of PD brain extract [1]: neither aggregated nor PK resistant | number of inclusions ([2]; total 24 h, without SK-129 ~19): 1–2 inclusions/100 cells | number of inclusions ([2]; up to 4 days): 2–3 inclusions/100 cells | effect on seed-catalyzed aggregation [3]: wholly suppressed
